Laboratory results taken from US20240109900A1, “AZABICYCLIC SHP2 INHIBITORS” (IRBM S.P.A., priority 2021, published 2024).

How the values were obtained:
[1] = biological target: SHP-2 enzyme (Met1-Leu525) (Homo sapiens (Human), UniProt Q06124); assay: SHP2 inhibition enzymatic assay; format: biochemical; details: 0.5 nM SHP-2 activated by 500 nM IRS1 peptide, 75 μM DiFMUP substrate; read-out: SHP2wt-IC50
In short: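 SHP-2 (Met1-Leu525), 0.5 nM, activated with 500 nM IRS1 bis-phosphopeptide, preincubated 30 min with compounds in HEPES pH 7.2 buffer with 5 mM DTT. 75 μM DiFMUP added for 30 min at room temperature, stopped with bpV; fluorescence read. IC50 from four-parameter logistic fit of % inhibition.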

[2] = system: ERK phosphorylation in KYSE-520 cells; assay: Phospho-ERK cellular assay; format: cell-based; details: Homo sapiens, KYSE-520, 2 h, KYSE-520 cells, 2 h at 37° C., phospho-ERK1/2 (Thr202/Tyr204) TR-FRET; read-out: PERK IC50
In short: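 TR-FRET read-out of ERK1/2 Thr202/Tyr204 phosphorylation was taken after overnight antibody incubation at room temperature. Before that, KYSE-520 cells were treated 2 h at 37 °C with compound dilutions and lysed 30 min. Percent inhibition relative to vehicle and cell-free wells was fitted four-parametrically to give IC50.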

Chain of SHP-2 enzyme (Met1-Leu525) (Q06124 1-525): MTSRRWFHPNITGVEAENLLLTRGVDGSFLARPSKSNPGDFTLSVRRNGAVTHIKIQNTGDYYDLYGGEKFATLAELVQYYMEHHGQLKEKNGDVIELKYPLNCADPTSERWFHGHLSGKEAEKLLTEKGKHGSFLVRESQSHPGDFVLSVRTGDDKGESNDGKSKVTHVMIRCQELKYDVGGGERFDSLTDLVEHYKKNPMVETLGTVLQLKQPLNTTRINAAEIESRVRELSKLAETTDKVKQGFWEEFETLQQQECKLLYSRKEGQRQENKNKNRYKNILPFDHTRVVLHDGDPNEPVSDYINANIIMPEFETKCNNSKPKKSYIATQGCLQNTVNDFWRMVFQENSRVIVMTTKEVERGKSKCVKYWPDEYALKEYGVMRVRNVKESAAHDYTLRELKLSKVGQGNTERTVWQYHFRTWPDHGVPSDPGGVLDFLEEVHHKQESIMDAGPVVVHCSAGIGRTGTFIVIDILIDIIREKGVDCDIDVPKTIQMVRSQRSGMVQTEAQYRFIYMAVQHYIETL

SMILES | IC50 [1] | IC50 [2]
NC[C@]1(c2c(F)cccc2F)[C@@H]2CCN(c3cnc4c(-c5cccn6nccc56)n[nH]c4n3)C[C@@H]21 [Example 116, ((1S,6R,7R)-7-(2,6-difluorophenyl)-3-(3-(pyrazolo[1,5-a]pyridin-4-yl)-1H-pyrazolo[3,4-b]pyrazin-6-yl)-3-azabicyclo[4.1.0]heptan-7-yl)methanamine] | < 500 nM | < 1000 nM
Cn1cc2c(Cl)c(-c3n[nH]c4nc(N5CC[C@@H]6[C@H](C5)[C@@]6(CN)c5c(F)cccc5F)cnc34)ccc2n1 [Example 117, ((1S,6R,7R)-3-(3-(4-chloro-2-methyl-2H-indazol-5-yl)-1H-pyrazolo[3,4-b]pyrazin-6-yl)-7-(2,6-difluorophenyl)-3-azabicyclo[4.1.0]heptan-7-yl)methanamine] | < 500 nM | < 1000 nM
NC[C@]1(c2ccccc2F)[C@@H]2CCN(c3cnc4c(-c5ccc6ncsc6c5)n[nH]c4n3)C[C@@H]21 [Example 118, ((1S,6R,7R)-3-(3-(benzo[d]thiazol-6-yl)-1H-pyrazolo[3,4-b]pyrazin-6-yl)-7-(2-fluorophenyl)-3-azabicyclo[4.1.0]heptan-7-yl)methanamine] | < 500 nM | < 1000 nM
COc1cnc2ccc(-c3n[nH]c4nc(N5CC[C@@H]6[C@H](C5)[C@@]6(CN)c5ccccc5F)cnc34)c(Cl)c2n1 [Example 119, ((1S,6R,7R)-3-(3-(5-chloro-3-methoxyquinoxalin-6-yl)-1H-pyrazolo[3,4-b]pyrazin-6-yl)-7-(2-fluorophenyl)-3-azabicyclo[4.1.0]heptan-7-yl)methanamine] | < 500 nM | < 1000 nM
Cn1cc2c(Cl)c(-c3n[nH]c4nc(N5CC[C@@H]6[C@H](C5)[C@@]6(CN)c5ccc(F)cn5)cnc34)ccc2n1 [Example 120, ((1S,6R,7S)-3-(3-(4-chloro-2-methyl-2H-indazol-5-yl)-1H-pyrazolo[3,4-b]pyrazin-6-yl)-7-(5-fluoropyridin-2-yl)-3-azabicyclo[4.1.0]heptan-7-yl)methanamine] | < 500 nM | < 1000 nM
Cc1nc2ccc(-c3n[nH]c4nc(N5CC[C@@H]6[C@H](C5)[C@@]6(CN)c5ccc(F)cn5)cnc34)c(Cl)c2s1 [Example 121, ((1S,6R,7S)-3-(3-(7-chloro-2-methylbenzo[d]thiazol-6-yl)-1H-pyrazolo[3,4-b]pyrazin-6-yl)-7-(5-fluoropyridin-2-yl)-3-azabicyclo[4.1.0]heptan-7-yl)methanamine] | < 500 nM | < 1000 nM
NC[C@]1(c2ccccc2F)[C@@H]2CCN(c3cnc4c(-c5cccc6c5CC(=O)N6)n[nH]c4n3)C[C@@H]21 [Example 122, 4-(6-((1S,6R,7R)-7-(aminomethyl)-7-(2-fluorophenyl)-3-azabicyclo[4.1.0]heptan-3-yl)-1H-pyrazolo[3,4-b]pyrazin-3-yl)indolin-2-one] | < 500 nM | < 1000 nM
Cn1cc2c(Cl)c(-c3n[nH]c4nc(N5CC[C@@H]6[C@H](C5)[C@@]6(CN)c5ccon5)cnc34)ccc2n1 [Example 123, ((1S,6R,7S)-3-(3-(4-chloro-2-methyl-2H-indazol-5-yl)-1H-pyrazolo[3,4-b]pyrazin-6-yl)-7-(isoxazol-3-yl)-3-azabicyclo[4.1.0]heptan-7-yl)methanamine] | < 500 nM | < 1000 nM
Cc1nc2ccc(-c3n[nH]c4nc(N5CC[C@@H]6[C@H](C5)[C@@]6(CN)c5ccon5)cnc34)c(Cl)c2s1 [Example 124, ((1S,6R,7S)-3-(3-(7-chloro-2-methylbenzo[d]thiazol-6-yl)-1H-pyrazolo[3,4-b]pyrazin-6-yl)-7-(isoxazol-3-yl)-3-azabicyclo[4.1.0]heptan-7-yl)methanamine] | < 500 nM | < 1000 nM
COc1cccc2c(-c3n[nH]c4nc(N5CC[C@@H]6[C@H](C5)[C@@]6(CN)c5cc(C)on5)cnc34)ccnc12 [Example 125, ((1S,6R,7S)-3-(3-(8-methoxyquinolin-4-yl)-1H-pyrazolo[3,4-b]pyrazin-6-yl)-7-(5-methylisoxazol-3-yl)-3-azabicyclo[4.1.0]heptan-7-yl)methanamine] | < 500 nM | < 1000 nM
Cc1cc([C@@]2(CN)[C@@H]3CCN(c4cnc5c(-c6ccc(OC(F)(F)F)c7ncccc67)n[nH]c5n4)C[C@@H]32)no1 [Example 126, ((1S,6R,7S)-7-(5-methylisoxazol-3-yl)-3-(3-(8-(trifluoromethoxy)quinolin-5-yl)-1H-pyrazolo[3,4-b]pyrazin-6-yl)-3-azabicyclo[4.1.0]heptan-7-yl)methanamine] | < 500 nM | < 1000 nM
Cc1cc([C@@]2(CN)[C@@H]3CCN(c4cnc5c(-c6ccc7nn(C)cc7c6C)n[nH]c5n4)C[C@@H]32)no1 [Example 127, ((1S,6R,7S)-3-(3-(2,4-dimethyl-2H-indazol-5-yl)-1H-pyrazolo[3,4-b]pyrazin-6-yl)-7-(5-methylisoxazol-3-yl)-3-azabicyclo[4.1.0]heptan-7-yl)methanamine] | < 500 nM | < 1000 nM
COCc1ccc(-c2n[nH]c3nc(N4CC[C@@H]5[C@H](C4)[C@@]5(CN)c4cc(C)on4)cnc23)c2cccnc12 [Example 128, ((1S,6R,7S)-3-(3-(8-(methoxymethyl)quinolin-5-yl)-1H-pyrazolo[3,4-b]pyrazin-6-yl)-7-(5-methylisoxazol-3-yl)-3-azabicyclo[4.1.0]heptan-7-yl)methanamine] | < 500 nM | < 1000 nM
Cc1cc([C@@]2(CN)[C@@H]3CCN(c4cnc5c(-c6cccn7nccc67)n[nH]c5n4)C[C@@H]32)no1 [Example 129, ((1S,6R,7S)-7-(5-methylisoxazol-3-yl)-3-(3-(pyrazolo[1,5-a]pyridin-4-yl)-1H-pyrazolo[3,4-b]pyrazin-6-yl)-3-azabicyclo[4.1.0]heptan-7-yl)methanamine] | < 500 nM | < 1000 nM
Cc1cc([C@@]2(CN)[C@@H]3CCN(c4cnc5c(-c6cc(F)cc7ncccc67)n[nH]c5n4)C[C@@H]32)no1 [Example 130, ((1S,6R,7S)-3-(3-(7-fluoroquinolin-5-yl)-1H-pyrazolo[3,4-b]pyrazin-6-yl)-7-(5-methylisoxazol-3-yl)-3-azabicyclo[4.1.0]heptan-7-yl)methanamine] | 500 to 3000 nM | < 1000 nM
NC[C@]1(c2ccccc2F)[C@@H]2CCN(c3cnc4c(-c5cccn6nccc56)n[nH]c4n3)C[C@@H]21 [Example 131, ((1S,6R,7R)-7-(2-fluorophenyl)-3-(3-(pyrazolo[1,5-a]pyridin-4-yl)-1H-pyrazolo[3,4-b]pyrazin-6-yl)-3-azabicyclo[4.1.0]heptan-7-yl)methanamine] | < 500 nM | < 1000 nM
NC[C@]1(c2ccccc2F)[C@@H]2CCN(c3cnc4c(-c5ccnc6c(F)cccc56)n[nH]c4n3)C[C@@H]21 [Example 132, ((1S,6R,7R)-7-(2-fluorophenyl)-3-(3-(8-fluoroquinolin-4-yl)-1H-pyrazolo[3,4-b]pyrazin-6-yl)-3-azabicyclo[4.1.0]heptan-7-yl)methanamine] | < 500 nM | < 1000 nM
Cc1cc([C@@]2(CN)[C@@H]3CCN(c4cnc5c(-c6ccc(C(F)F)c7ncccc67)n[nH]c5n4)C[C@@H]32)no1 [Example 133, ((1S,6R,7S)-3-(3-(8-(difluoromethyl)quinolin-5-yl)-1H-pyrazolo[3,4-b]pyrazin-6-yl)-7-(5-methylisoxazol-3-yl)-3-azabicyclo[4.1.0]heptan-7-yl)methanamine] | < 500 nM | < 1000 nM
Cc1cc([C@@]2(CN)[C@@H]3CCN(c4cnc5c(-c6ccc(C(C)O)c7ncccc67)n[nH]c5n4)C[C@@H]32)no1 (stereo partly drawn) [Example 134, 1-(5-(6-((1S,6R,7S)-7-(aminomethyl)-7-(5-methylisoxazol-3-yl)-3-azabicyclo[4.1.0]heptan-3-yl)-1H-pyrazolo[3,4-b]pyrazin-3-yl)quinolin-8-yl)ethan-1-ol] | < 500 nM | < 1000 nM
NC[C@]1(c2ccccc2F)[C@@H]2CCN(c3ncc(Sc4ccnc(N)c4Cl)n4cncc34)C[C@@H]21 [Example 135, 4-((8-((1S,6R,7R)-7-(aminomethyl)-7-(2-fluorophenyl)-3-azabicyclo[4.1.0]heptan-3-yl)imidazo[1,5-a]pyrazin-5-yl)thio)-3-chloropyridin-2-amine] | > 3000 nM | > 5000 nM
NC[C@]1(c2ccccc2F)[C@@H]2CCN(c3cnc4c(-c5ccn6nccc6c5)n[nH]c4n3)C[C@@H]21 [Example 136, ((1S,6R,7R)-7-(2-fluorophenyl)-3-(3-(pyrazolo[1,5-a]pyridin-5-yl)-1H-pyrazolo[3,4-b]pyrazin-6-yl)-3-azabicyclo[4.1.0]heptan-7-yl)methanamine] | < 500 nM | < 1000 nM
CC(C)(O)c1ccc(-c2n[nH]c3nc(N4CC[C@@H]5[C@H](C4)[C@@]5(CN)c4ccccc4F)cnc23)c2cccnc12 [Example 137, 2-(5-(6-((1S,6R,7R)-7-(aminomethyl)-7-(2-fluorophenyl)-3-azabicyclo[4.1.0]heptan-3-yl)-1H-pyrazolo[3,4-b]pyrazin-3-yl)quinolin-8-yl)propan-2-ol] | < 500 nM | < 1000 nM
CC(C)Oc1ccc(-c2n[nH]c3nc(N4CC[C@@H]5[C@H](C4)[C@@]5(CN)c4ccccc4F)cnc23)c2cccnc12 [Example 138, ((1S,6R,7R)-7-(2-fluorophenyl)-3-(3-(8-isopropoxyquinolin-5-yl)-1H-pyrazolo[3,4-b]pyrazin-6-yl)-3-azabicyclo[4.1.0]heptan-7-yl)methanamine] | < 500 nM | < 1000 nM
